Literature values as cited in patent publication US20100035978A1, “COMBINATION OF CANNABINOIDS FOR THE TREATMENT OF PERIPHERAL NEUROPATHIC PAIN” (GW Pharma Limited, priority 2005, published 2010).

System: patients taking carbamezepine

SMILES: NC(=O)N1c2ccccc2C=Cc2ccccc21 [carbamezepine]
- increase in the risk of blood dyscrasias (post-marketing studies): five- to eight-fold
- patients with a 25% decrease in white blood cell count (usually reverses within the first 4 months of therapy): 7%
